The values below come from patent publication US12312330B2, “1-((S)-1-(3-chloro-5-fluoro-2-((4-(1h-pyrazol-1-yl)-2-methylquinolin-8-yloxy)methyl)phenyl)ethyl)-imidazolidine-2,4-dione derivatives and related compounds as bradykinin (BK) B2 receptor antagonist for treating skin diseases” (Pharvaris GmbH, priority 2019, dated 2025).

The term IC50 denotes the concentration needed to halve the response being measured.

The test has as its target T1, human bradykinin B2 receptor (hB2R) (Homo sapiens, UniProt P30411).
T1 sequence (P30411 1-391): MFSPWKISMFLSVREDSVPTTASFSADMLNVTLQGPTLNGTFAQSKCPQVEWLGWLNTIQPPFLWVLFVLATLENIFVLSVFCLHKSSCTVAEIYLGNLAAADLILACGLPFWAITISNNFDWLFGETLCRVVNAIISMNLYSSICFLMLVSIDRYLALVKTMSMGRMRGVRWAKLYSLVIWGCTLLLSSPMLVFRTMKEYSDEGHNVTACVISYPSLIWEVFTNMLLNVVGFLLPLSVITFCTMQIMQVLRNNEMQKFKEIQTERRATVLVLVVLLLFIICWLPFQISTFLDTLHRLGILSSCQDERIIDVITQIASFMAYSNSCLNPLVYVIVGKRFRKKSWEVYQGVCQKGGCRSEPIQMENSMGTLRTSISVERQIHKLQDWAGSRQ
The test is described as follows: human bradykinin B2 receptor calcium mobilization (hB2R-CaM) assay. As to conditions: antagonism of bradykinin (EC80) induced calcium mobilization, B2 Bradykinin Receptor Stable Cell Line HTS041C, 25 min pre-incubation; read-out: IC50-value towards human bradykinin B2 receptor (hB2R). It counts as cell-based. An excerpt:
The following cell-based human bradykinin B2 receptor calcium mobilization (hB2R-CaM) assay was used to determine the antagonistic activity of compounds selected from the example compounds Nos. 1 to 107 towards human bradykinin B2 receptor (hB2R). The assay is defined herein as a standard in vitro B2 receptor activity assay, which can be used to determine IC50 values of the compounds according to the present invention, e. g. the compounds shown in Examples 1-13.
The antagonistic activity of compounds according to the present invention was investigated with the hB2R-CaM assay using the B2 Bradykinin Receptor Stable Cell Line HTS041C (Eurofins, St. Charles MO) and the FLIPR Calcium 6 Assay Kit (Molecular Devices, Wokingham, UK) according to the instructions of the providers. CaM assay measurements were performed with a Flexstation 3 System (Molecular Devices) which allows the precise addition of compounds (B2R antagonists) and bradykinin (B2R agonist) to the cells and adjacent continuous recording of the time-dependent CaM assay signals.
HTS041C cells were cultured in high glucose DMEM cell culture medium (Lonza) supplemented with 10% heat-inactivated FBS (PAN Biotech), 10 mM HEPES, Penicillin/Streptomycin (200 U/mL, 200 μg/mL), lx non-essential amino acids (Lonza), and 250 μg/mL G418 (Invivogen) in cell incubator at 37° C. in a 5% CO2 atmosphere. One day before the CaM assay experiments cells were seeded in 200 μL DMEM cell culture medium with reduced FBS (5%) and without G418 on clear bottom black 96 well plates (ThermoFisher #165305). Cell starvation was carried out by incubation (37° C., 5% CO2) of 70.000 cells/well for 24 h to 28 h. Immediately prior calcium dye-loading the medium was carefully aspirated and cells were washed with Hank's balanced salt solution (HBSS, Gibco) containing Ca^2+, Mg^2+ and 20 mM HEPES, adjusted to pH 7.4 (HBSS+).
For calcium dye-loading one FLIPR 6 assay aliquot was dissolved in 20 mL HBSS+. 150 μL of the dye loading solution was added to cell plate and incubated for 120 min at 37° C. and 5% CO2. After dye loading the cell plate was immediately transferred to the pre-warmed (37° C.) Flexstation 3 System for CaM assaying.
Freshly prepared compound (B2 receptor antagonists) dilution series (8 pt, n=2) and bradykinin (B2 receptor agonist) solution in non-binding plates (Costar) were transferred to the Flexstation System (source plate) shortly before starting the experiment. Bradykinin was added in EC80 concentration determined in n>3 preliminary experiments with 8 pt concentration response curves (n=8)). CaM assay was executed by Flexstation 3 System starting with recording of calcium-sensitive dye fluorescence in bottom-read Flex modus with ex/em=485 nm/525 nm, cut off(em)=515 nm After 20 s, 50 μL of 4-fold concentrated compound dilutions were added to the cells resulting in a final DMSO (Sigma) concentration of 0.1% in the cell plate. CaM signals were monitored for 80 s after additions for detection of potential agonistic activities. Prior to bradykinin stimulus compound- and vehicle-treated cells were incubated for 25 min at 37° C. within the Flexstation System. Then 50 μL of a 5-fold concentrated bradykinin solution (HBSS+, 0.1% DMSO) was added to trigger CaM signals (Read out: Max-Min values) which were measured for 80 s post bradykinin stimulus.
IC50 determinations were performed by 4 parameter logistic model curve fitting of the 8 pt (n=2) compound concentration response curves using XLFIT (IDBS) software.
(A change in cytosolic calcium serves as a functional read-out for many receptors and channels.)
As to `Cc1cc(-c2ncnn2C)c2cccc(OCc3c(Cl)cc(F)cc3[C@H](C)N3CC(=O)N[C@H](C)C3=O)c2n1` [compound 75], the IC50 was 11 to 100 nM.

On to `Cc1cc(-n2cc(F)cn2)c2cccc(OCc3c(Cl)cc(F)cc3[C@H](C)N3CCN(C(C)C)CC3=O)c2n1` [compound 76], for which the IC50 was at most 10 nM.

On to `Cc1cc(-n2cc(F)cn2)c2cccc(OCc3c(Cl)cc(F)cc3[C@H](C)N3CCN[C@H](C)C3=O)c2n1` [compound 77], for which the IC50 was in the range of 11 to 100 nM.

For `CC(=O)N1CCN([C@@H](C)c2cc(F)cc(Cl)c2COc2cccc3c(-n4cc(F)cn4)cc(C)nc23)C(=O)C1` [compound 78], the IC50 was in the range of 11 to 100 nM.

Take `Cc1cc(-n2cc(F)cn2)c2cccc(OCc3c(Cl)cc(F)cc3[C@H](C)N3CCN(C(=O)OC(C)(C)C)[C@H](C)C3=O)c2n1` [compound 79]: the IC50 is 101 to 500 nM.

As for `Cc1cc(-n2cc(F)cn2)c2cccc(OCc3c(Cl)cc(F)cc3[C@H](C)N3CCN(C(=O)OC(C)(C)C)[C@@H](C)C3=O)c2n1` [compound 80], the IC50 was in the range of 101 to 500 nM.

For `CCN1CCN([C@@H](C)c2cc(F)cc(Cl)c2COc2cccc3c(-n4cc(F)cn4)cc(C)nc23)C(=O)C1` [compound 81], the IC50 is at most 10 nM.

For the molecule `Cc1cc(-n2cc(F)cn2)c2cccc(OCc3c(Cl)cc(F)cc3[C@H](C)N3C[C@H](O)CCC3=O)c2n1` [compound 82], the IC50 was at most 10 nM.

Regarding `Cc1cc(-c2ncnn2C)c2cccc(OCc3c(Cl)cc(F)cc3[C@H](C)N3C[C@H](O)CCC3=O)c2n1` [compound 83], the half-maximal inhibitory concentration (IC50) lay in the range of 11 to 100 nM.

Take `Cc1cc(-n2cc(F)cn2)c2cccc(OCc3c(Cl)cc(F)cc3[C@H](C)N3CCC[C@@H](O)C3=O)c2n1` [compound 84]: the IC50 is 11 to 100 nM.

`Cc1cc(-c2ncnn2C)c2cccc(OCc3c(Cl)cc(F)cc3[C@H](C)N3CCC[C@H](O)C3=O)c2n1` [compound 85]: the IC50 was 101 to 500 nM.

Regarding `Cc1cc(-n2cc(F)cn2)c2cccc(OCc3c(Cl)cc(F)cc3[C@H](C)N3C[C@H](C)NC(=O)C3=O)c2n1` [compound 86], the IC50 is at most 10 nM.

For the molecule `Cc1cc(-n2cc(F)cn2)c2cccc(OCc3c(Cl)cc(F)cc3[C@H](C)N3CCN(C)C(=O)C3=O)c2n1` [compound 87], the IC50 was at most 10 nM.

In the case of `Cc1cc(-c2ncnn2C)c2cccc(OCc3c(Cl)cc(F)cc3[C@H](C)N3CC[C@@H](OC(F)F)C3=O)c2n1` [compound 88], the IC50 was at most 10 nM.

For `Cc1cc(-n2cc(F)cn2)c2cccc(OCc3c(Cl)cc(F)cc3[C@H](C)N3CC[C@@H](OC(F)F)C3=O)c2n1` [compound 89], the IC50 was in the range of 11 to 100 nM.

For `Cc1cc(-n2cc(F)cn2)c2cccc(OCc3c(Cl)cc(F)cc3[C@H](C)N3C(=O)[C@H](C)NC(=O)[C@@H]3C)c2n1` [compound 90], the IC50 is 11 to 100 nM.

Turning to `Cc1cc(-c2ncnn2C)c2cccc(OCc3c(Cl)cc(F)cc3[C@H](C)N3CC[C@H](F)C3=O)c2n1` [compound 91], the IC50 is at most 10 nM.

Take `Cc1cc(-n2cc(F)cn2)c2cccc(OCc3c(Cl)cc(F)cc3[C@H](C)N3CCN(C)[C@@H](C)C3=O)c2n1` [compound 92]: the IC50 is at most 10 nM.

In the case of `Cc1cc(-n2cc(F)cn2)c2cccc(OCc3c(Cl)cc(F)cc3[C@H](C)N3CCN(C)[C@H](C)C3=O)c2n1` [compound 93], the IC50 was at most 10 nM.

Regarding `Cc1cc(-n2cc(F)cn2)c2cccc(OCc3c(Cl)cc(F)cc3[C@H](C)N3CCN[C@@H](C)C3=O)c2n1` [compound 94], the concentration for half-maximal inhibition (IC50) was at most 10 nM.

Consider `Cc1cc(-n2cc(F)cn2)c2cccc(OCc3c(Cl)cc(F)cc3[C@H](C)N3C[C@H](O)CC3=O)c2n1` [compound 95], for which the IC50 was 11 to 100 nM.

For `Cc1cc(-c2ncnn2C)c2cccc(OCc3c(Cl)cc(F)cc3[C@H](C)N3C[C@H](O)CC3=O)c2n1` [compound 96], the IC50 is 11 to 100 nM.

As to `Cc1cc(-n2cc(F)cn2)c2cccc(OCc3c(Cl)cc(F)cc3[C@H](C)N3C[C@@H](C)NC(=O)C3=O)c2n1` [compound 97], the IC50 is at most 10 nM.

For `Cc1cc(-c2ncnn2C)c2cccc(OCc3c(Cl)cc(F)cc3[C@H](C)N3C[C@@H](C)NC(=O)C3=O)c2n1` [compound 98], the IC50 was at most 10 nM.

For `Cc1cc(-n2cc(F)cn2)c2cccc(OCc3c(Cl)cc(F)cc3[C@H](C)N3C(=O)[C@@H](C)NC(=O)[C@@H]3C)c2n1` [compound 99], the IC50 was 11 to 100 nM.

As for `Cc1cc(-n2cc(F)cn2)c2cccc(OCc3c(Cl)cc(F)cc3[C@H](C)N3CCNC(C)(C)C3=O)c2n1` [compound 100], the IC50 was 11 to 100 nM.

As to `Cc1cc(-c2ncnn2C)c2cccc(OCc3c(Cl)cc(F)cc3[C@H](C)N3CC(=O)NC(C)(C)C3=O)c2n1` [compound 101], the IC50 lay in the range of 11 to 100 nM.

Take `Cc1cc(-n2cc(F)cn2)c2cccc(OCc3c(Cl)cc(F)cc3[C@H](C)N3CC(=O)NC(C)(C)C3=O)c2n1` [compound 102]: the IC50 fell in the range of 11 to 100 nM.

`Cc1cc(-n2cc(F)cn2)c2cccc(OCc3c(Cl)cc(F)cc3[C@H](C)N3CC(=O)N(C)[C@H](C)C3=O)c2n1` [compound 103]: the IC50 is 11 to 100 nM.

`Cc1cc(-c2ncnn2C)c2cccc(OCc3c(Cl)cc(F)cc3[C@H](C)N3CC(=O)N(C)[C@H](C)C3=O)c2n1` [compound 104]: the IC50 was at most 10 nM.

Turning to `Cc1cc(-c2ncnn2C)c2cccc(OCc3c(Cl)cc(F)cc3[C@H](C)N3C(=O)[C@@H](C)NC(=O)[C@H]3C)c2n1` [compound 105], the IC50 is 11 to 100 nM.

In the case of `Cc1cc(-c2ncnn2C)c2cccc(OCc3c(Cl)cc(F)cc3[C@H](C)N3C(=O)[C@H](C)NC(=O)[C@H]3C)c2n1` [compound 106], the IC50 was 11 to 100 nM.

On to `CCN1C(=O)CN([C@@H](C)c2cc(F)cc(Cl)c2COc2cccc3c(-n4cc(F)cn4)cc(C)nc23)C1=O` [compound 107], for which the IC50 is 11 to 100 nM.
